Legend:
[1] = system: KB cell; format: cell-based, human; conditions: for Activity in μg/ml (ED50 = concentration causing 50% inhibition of growth): kb cells
[2] = system: pigeons; conditions: in vivo, po
[3] = system: pigeons; conditions: in vivo
[4] = system: mice; conditions: mouse, in vivo, ip

Compound	Activity in μg/ml (ED50 = concentration causing 50% inhibition of growth) [1]	toxicity relative to T-2 toxin [2]	vomiting [3]	toxicity relative to T-2 toxin [4]	times more active than T-2 toxin [1]
CC(=O)OCC12CC(OC(=O)CC(C)C)C(C)=CC1OC1C(OC(=O)c3ccccc3)C(OC(C)=O)C2(C)C12CO2 (stereo not shown) [BzT-2]	10 µg/mL	–	–	–	–
CCC(=O)OC1C2OC3C=C(C)C(OC(=O)CC(C)C)CC3(COC(C)=O)C(C)(C1OC(C)=O)C21CO1 (stereo not shown) [PT-2]	10^-8 μg/ml	–	–	–	–
CC(=O)OCC12CC(OC(=O)CC(C)C)C(C)=CC1OC1C(OC(C)=O)C(OC(C)=O)C2(C)C12CO2 (stereo not shown) [AT-2]	10^-8 μg/ml	less than 1/6	virtually completely eliminated	less than 1/2	about 5,000 times

Reference: patent publication US4129577A (priority 1977, dated 1978)
